The record followed here is ChEMBL document CHEMBL3430912, “GSK Tres Cantos Anti-Kinetoplastid Screening (TCAKS) Data”.

In data set [1] the test system is Leishmania donovani. Nature of the data set: GSK_TCAKS: pIC50 Leishmania donovani viability assay using fluorescence intensity. Assay plates (1536-well) were prepared by adding 30nL per well of compound. For single shot assay, the final compound concentration was 5uM. […] Briefly, eGFP LdBOB axenic amastigotes were harvested, fixed and counted in a CASY cell counter (Roche-Applied Science). A final concentration of 1.5 * 10^5 cells per well were prepared in amastigote media containing 500 U/mL penicillin/streptomycin (Invitrogen) and 6uL was dispensed to each experimental well using a Multidrop Combi dispenser (Thermo Scientific). 6uL of assay media was dispensed to control columns used as reference for 100% compound response. Following incubation for 72 h at 37C, 5% CO2, 2 uL of resazurin was added to each well at a final concentration of 0.5 mM in phosphate buffered saline (PBS) with IGEPAL (Sigma-Aldrich), 0.05% (v/v). It is filed as functional, organism-based.

The subject of data set [2] is Leishmania donovani. Nature of the data set: GSK_TCAKS: pIC50 Leishmania donovani Imaging: Amastigotes/Macrophages. Assay plates (384-well) were prepared by adding 250nL of compound to each well. For single shot assay, the final compound concentration was 5 uM. […] Automated image analysis was performed with a script developed on Acapella High Content Imaging and Analysis Software (PerkinElmer). Output: Average number of amastigotes per macrophage cell were reported for each well. It is filed as functional, organism-based, Homo sapiens. To be noted: THP-1.

Data set [3] in a line: GSK_TCAKS: pIC50 HepG2 human cell line viability assay using luminiscence. […] Seeding density was checked to ensure that new mono-layers were not more than 50% confluent at the time of harvesting. Cell suspension was added to 500 mL of the same medium at a final density of 1.2 * 10^5 cells/mL. This cell suspension was dispensed (25 uL, 3000 cells per well) into 384-well clear-bottom plates using a Multidrop Combi dispenser. Prior to addition of the cell suspension, the screening compounds (250 nL) were pre-dispensed into the plates with an Echo liquid handler. Plates were incubated for 48 h at 37C, 5% CO2. After incubation, plates equilibrated at room temperature for 30 min before proceeding to develop the luminescent signal. The signal developer, CellTiter-Glo Reagent, was allowed to equilibrate at room temperature for 30 min and added to the plates (25uL per well) using a Multidrop Combi dispenser. Plates were left for 10 min at room temperature for stabilization and then read using a ViewLux. It is filed as toxicity, cell-based. (ATP-based viability assays read luminescence as a measure of living cells.)

Data set [4] has as its system Trypanosoma cruzi. Nature of the data set: GSK_TCAKS: pIC50 Trypanosoma cruzi Imaging: Amastigotes/Cell. […] Cells were then washed once with PBS before infection. T. cruzi trypomastigotes, collected at days 5 to 8 after infection from LLC-MK2 parasite infected cultures, were allowed to swim out for 4h at 37C from a centrifuged pellet (2,500 rpm/10 min/room temperature). Trypomastigotes were then collected and counted in a CASY Cell Counter. Trypomastigotes, in supplemented DMEM, were added to H9c2 cultures in a multiplicity of infection of 1 and incubated for 18 h. Cells were washed once with PBS before incubation of the infected H9c2 monolayer with trypsin (Life-Technologies) to detach cells from the flask. Cells were counted in a CASY Cell Counter using a 150 um capillary and their density set at 5 * 10^4 cells per mL in supplemented assay DMEM. Infected H9c2 were dispensed into 384-well poly-lysine coated assay plates at 50uL per well using a Multidrop Combi dispenser. After seeding them, the plates were incubated at 37C, 5% CO2 for 72h. Cultures were then fixed and stained by addition of 50 uL of a solution containing 8% formaldehyde and 4 uM DRAQ5 DNA dye (BioStatus, UK) per well. […] Five images were collected per well for reliable statistical analysis. Automated image analysis was performed with a script developed on Acapella High Content Imaging and Analysis Software (PerkinElmer). Output: number of amastigotes per cell as infection level measurement. It is filed as functional, organism-based, Rattus norvegicus. The following applies: H9c2, 4 h.

For data set [5], the system named is Trypanosoma cruzi. The data set is described as follows: GSK_TCAKS: pIC50 Trypanosoma cruzi viability assay using beta-GAL activity. This assay was run at single shot at 5uM compound concentration per well. The biological reagents consisted of NIH-3T3 host cells and trypomastigotes parasitic cells; both cell types were set to a 3.3 * 10^5 cells/mL dilution in assay DMEM by means of a CASY cell counter device using a 60um capillary. 6 uL of the mixture were dispensed per well (about 1 * 10^3 host-cells and 1 * 10^3 parasites) with a Multidrop Combi dispenser. […] In all wells, the percentage of DMSO never exceeded 0.5%. Plates incubated for four days at 37C, 5% CO2. The substrate used for the assay fluorescence intensity (FLINT) readout was resorufin-beta-D-galactopiranoside (Sigma-Aldrich) at 5uM per well. It was diluted in PBS supplemented with the soft detergent Igepal (Fluka). It is filed as functional, organism-based, Mus musculus. To be noted: Tulahuen, NIH3T3.

For data set [6], the system named is Leishmania donovani. Nature of the data set: GSK_TCAKS: pIC50 Leishmania donovani Imaging: THP-1 Host Macrophages. Assay plates (384-well) were prepared by adding 250nL of compound to each well. For single shot assay, the final compound concentration was 5 uM. […] Automated image analysis was performed with a script developed on Acapella High Content Imaging and Analysis Software (PerkinElmer). Output: THP-1 cell count were reported for each well. It is filed as functional, organism-based, Homo sapiens.

The test system of data set [7] is Trypanosoma brucei brucei. Nature of the data set: GSK_TCAKS: pIC50 Trypanosoma brucei viability assay using luminiscence. Assay plates (1536-well) were prepared. T. brucei cultures were harvested and counted in a CASY cell counter. A parasite suspension was prepared at a final concentration of 5 * 10^4 cells/mL in complete HMI9 medium and 6uL was dispensed to all wells containing compounds using a Multidrop Combi dispenser. 6uL of HMI9 media with 0.4% DMSO were dispensed to control columns. Plates were incubated for 24 h at 37C, 5% CO2 then tempered for 10 min at room temperature. ATP content was quantified by adding 4 uL of CellTiter-Glo Reagent (Promega) according to the manufacturer's instructions. Luminescence was measured using a ViewLux. To be noted: Lister 427, CASY. It is filed as functional, organism-based.

In data set [8] the target is Sterol 14-alpha demethylase (Trypanosoma cruzi (strain CL Brener), UniProt Q7Z1V1). The data set is described as follows: GSK_TCAKS: pIC50 CYP51 from Trypanosoma cruzi. It is filed as functional.
Data set [9] concerns Trypanosoma brucei brucei. Nature of the data set: GSK_TCAKS: pIC50 Trypanosoma brucei viability assay using fluorescence intensity. Assay plates (1536-well) were prepared by dispensing 25nL of compound solution per well using an Echo acoustic dispenser (Labcyte). It is filed as functional, organism-based. To be noted: Lister 427, 2 h.
For data set [10], the system named is Trypanosoma cruzi. Nature of the data set: (§1) GSK_TCAKS: pIC50 Trypanosoma cruzi Imaging: Infected Cells. […] Cells were then washed once with PBS before infection. T. cruzi trypomastigotes, collected at days 5 to 8 after infection from LLC-MK2 parasite infected cultures, were allowed to swim out for 4h at 37C from a centrifuged pellet (2,500 rpm/10 min/room temperature). Trypomastigotes were then collected and counted in a CASY Cell Counter. Trypomastigotes, in supplemented DMEM, were added to H9c2 cultures in a multiplicity of infection of 1 and incubated for 18 h. Cells were washed once with PBS before incubation of the infected H9c2 monolayer with trypsin (Life-Technologies) to detach cells from the flask. Cells were counted in a CASY Cell Counter using a 150 um capillary and their density set at 5 * 10^4 cells per mL in supplemented assay DMEM. Infected H9c2 were dispensed into 384-well poly-lysine coated assay plates at 50uL per well using a Multidrop Combi dispenser. After seeding them, the plates were incubated at 37C, 5% CO2 for 72h. Cultures were then fixed and stained by addition of 50 uL of a solution containing 8% formaldehyde and 4 uM DRAQ5 DNA dye (BioStatus, UK) per well. […] Five images were collected per well for reliable statistical analysis. Automated image analysis was performed with a script developed on Acapella High Content Imaging and Analysis Software (PerkinElmer). Output: percentage of infected cells per well as a second infection marker. The following applies: H9c2, 4 h. It is filed as functional, organism-based, Rattus norvegicus.

For data set [11], the system named is Trypanosoma cruzi. The description is as §1, with “H2C9” for “Trypanosoma cruzi”, “H9c2 Host Cardiomyocytes.” for “Infected Cells.”, “Number” for “percentage”, “H9c2 Host Cardiomyocytes nuclei to determine drug-related cytotoxicity.” for “infected cells per well as a second infection marker.”. It is filed as functional, organism-based, Rattus norvegicus. To be noted: H9c2, 4 h.

Data set [12] has as its system Leishmania donovani. The data set is described as follows: GSK_TCAKS: pIC50 Leishmania donovani Imaging: Infected Macrophages. Assay plates (384-well) were prepared by adding 250nL of compound to each well. For single shot assay, the final compound concentration was 5 uM. […] Automated image analysis was performed with a script developed on Acapella High Content Imaging and Analysis Software (PerkinElmer). Output: Percent of infected macrophage cells were reported for each well. It is filed as functional, organism-based, Homo sapiens. The following applies: THP-1.

Chain of Sterol 14-alpha demethylase (Q7Z1V1 whole entry): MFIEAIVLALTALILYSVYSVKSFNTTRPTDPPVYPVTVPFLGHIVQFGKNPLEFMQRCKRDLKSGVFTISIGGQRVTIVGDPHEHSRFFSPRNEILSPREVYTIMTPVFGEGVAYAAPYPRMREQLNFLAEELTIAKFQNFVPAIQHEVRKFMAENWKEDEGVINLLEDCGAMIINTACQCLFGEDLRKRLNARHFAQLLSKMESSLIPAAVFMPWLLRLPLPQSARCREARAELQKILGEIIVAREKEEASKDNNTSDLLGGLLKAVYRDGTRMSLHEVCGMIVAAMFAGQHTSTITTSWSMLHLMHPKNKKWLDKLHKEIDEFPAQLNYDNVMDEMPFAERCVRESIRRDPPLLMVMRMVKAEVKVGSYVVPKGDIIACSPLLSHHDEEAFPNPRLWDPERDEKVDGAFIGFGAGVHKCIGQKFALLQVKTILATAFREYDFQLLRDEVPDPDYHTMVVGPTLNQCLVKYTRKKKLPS

As usually defined, the IC50 is the midpoint of a concentration-inhibition curve. As for `CC(c1cc(Cl)cc(Cl)c1)N(C)c1ncc2c(N)nc(N)nc2n1` (stereo not given), the IC50 in data set [1] was 0.794 µM; in [2], 0.251 µM; in data set [4], 0.001 µM; in data set [5], 0.0631 µM; in [6] it was 31.6 µM; in [7] it was 31.6 µM. Moreover, the half-maximal inhibitory concentration (IC50) in [8] was 39.8 µM; in data set [9], more than 39.8 µM; in data set [10], 0.002 µM; in data set [11], 7.94 µM; in data set [12], 0.794 µM. In data set [3], this molecule had an IC50 at 48 h of 63.1 µM.

As to `COc1ccnc2[nH]cc(-c3cc(C(=O)N[C@H](CO)c4ccccc4)co3)c12`, the IC50 in data set [1] was 25.1 µM; in data set [2], 2 µM; in [4], 7.94 µM; in data set [5], 1.26 µM; in data set [6], 0.794 µM; in [7], 0.0126 µM. Also, the concentration for half-maximal inhibition (IC50) in data set [8] was 0.794 µM; in [9] it was 0.00501 µM; in data set [10] it was 20 µM; in [11], 0.316 µM; in data set [12], 7.94 µM. The molecule also gave an IC50 at 48 h in data set [3] of 15.8 µM.

On to `COc1ccc(-c2cnc(NC(=O)c3cc(-c4ccccn4)n[nH]3)n2C)cc1`, for which the concentration for half-maximal inhibition (IC50) in data set [1] was 3.98 µM; in data set [2], 0.794 µM; in data set [4] it was 3.98 µM; in data set [5], 3.55 µM; in data set [6], more than 50.1 µM; in [7], 10 µM. The IC50 in [8] is 15.8 µM; in data set [9] it was 0.398 µM; in data set [10], 5.01 µM; in [11], more than 50.1 µM; in [12] it was 1 µM. This molecule showed a half-inhibitory concentration (IC50) at 48 h in data set [3] of more than 100 µM.

In the case of `CCCc1cc(C(=O)Nc2ncc(-c3cccc(Br)c3)n2C)[nH]n1`, the IC50 in data set [1] is 6.31 µM; in [2], 3.98 µM; in data set [4], 2.51 µM; in [5], 2.51 µM; in data set [6] it was 31.6 µM; in data set [7] it was 1.26 µM. For the same molecule, the 50% inhibitory concentration (IC50) in [8] is 25.1 µM; in [9], 2.51 µM; in data set [10], 3.98 µM; in data set [11], more than 50.1 µM; in data set [12], 5.01 µM. This molecule gave an IC50 at 48 h in [3] of more than 100 µM.

On to `Cc1nn2c(NCCCO)c3c(nc2c1-c1cccs1)CCC3`, for which the IC50 is 2 µM in [1]; more than 50.1 µM in data set [2]; 5.01 µM in data set [4]; 15.8 µM in data set [5]; more than 50.1 µM in data set [6]; 0.398 µM in data set [7]. Further, the IC50 in data set [8] is 25.1 µM; in [9] it was 0.316 µM; in data set [10], 50.1 µM; in data set [11] it was more than 50.1 µM; in [12], more than 50.1 µM. The molecule further showed an IC50 at 48 h in data set [3] of more than 100 µM.
